Reference: US20090170091A1, “Method For Predicting Biological Systems Responses” (priority 2006, published 2009)
Like-named read-outs stand apart in the source and are kept apart here.

Tests used:
HeLa cells = HeLa cells after camptothecin treatment; mRNA abundance; cited from earlier work
HepG2 cells = test: CellCipher cytotox profile, multiplexed HCS toxicity panel (11 cytotoxicity parameters, two plate assay); format: cell-based
Excerpt: This example pertains to a multiplexed toxicity HCS profiling panel. It describes the performance of a specific CellCipher™ cytotox profile which is designed to measure 11 cytotoxicity parameters using a two plate assay.
Assay and Reagent Specifications. […] The antibody and fluorescent indicators of cell physiology reagent specifications for Cytotox Profile Plate 1 are contained in Table 7 whereas the antibody and fluorescent indicators of cell physiology reagent specifications for Cytotox Profile Plate 2 are contained in Table 8. Finally, the assay buffer specifications for both Cytotox Profile Plates 1 and 2 are contained in Table 9.
HepG2 cell handling and plating procedure. HepG2 cells were obtained from the American Type Cell Collection (cat no. HB-8065) and an original seed stock was prepared from one vial containing 1×10^+6 cells. From the seed stock, a working stock was prepared using standard procedures. Cells were thawed form the working stock when required and maintained in culture for 20 passages before being discarded. […]
Cell plating for cytotox profile. For the cytotox profile, thin bottom 384-well microplates were used that are compatible with the high numerical aperture optics available on most HCS readers. […] Cells were passaged by trypsinization, including trituration, and viable cells counted. […]

CC[C@@]1(O)C(=O)OCc2c1cc1n(c2=O)Cc2cc3ccccc3nc2-1 [camptothecin]
Double strand DNA break repair genes, change (HeLa cells): 4.0%
Histone genes, change (HeLa cells): 8.1%
Mitosis related genes, change (HeLa cells): 9.7%
NF-κB inducible genes, change (HeLa cells): 12.5%
Nuclear compartment genes, change (HeLa cells): 16.5%
p53-inducible genes, change (HeLa cells): 28.1%

CC[C@H](C)C(=O)O[C@H]1CCC=C2C=C[C@H](C)[C@H](CC[C@@H]3C[C@@H](O)CC(=O)O3)[C@H]21 [mevastatin]
degree of activity (IC50 from KS dose-response fits) across the cytotox profile assays (HepG2 cells): moderate degree of activity (in the μM range) in many assays

CC[C@H](C)C(=O)O[C@H]1C[C@@H](C)C=C2C=C[C@H](C)[C@H](CC[C@@H]3C[C@@H](O)CC(=O)O3)[C@H]21 [lovastatin]
degree of activity (IC50 from KS dose-response fits) across the cytotox profile assays (HepG2 cells; HepG2 cells, 11 features at 30 min, 24 h and 72 h, FIG. 9 heat map clusters): moderate degree of activity (in the μM range) in many assays
